Measured values as given in patent publication US12383545B1, “Treatment of migraine” (priority 2018, dated 2025).

System: patients with migraine (4 to 14 migraine/probable migraine headache days)
Test: Example 5: randomized double-blind placebo-controlled 12-week dose-regimen study (QD and BID), migraine/probable migraine (MPM) headache days efficacy
Format: in vivo, human
Details: mITT population
Experimental: In a multicenter, randomized, double-blind, placebo-controlled, parallel-group study designed to evaluate the efficacy, safety, and tolerability of multiple doses and doses regimens of atogepant for the prevention of migraine. The patients were randomized (2:1:2:1:2:1) to 1 of 6 treatment groups: placebo, atogepant 10 mg QD, atogepant 30 mg QD, atogepant 30 mg BID, atogepant 60 mg QD, and atogepant 60 mg BID.
This study consisted of a 4-week screening and baseline period and a 12-week double-blind treatment period, which was followed by a 4-week safety follow-up period. Total study duration is 20-weeks.
To be randomized, eligible patients had to be 18 to 75 years of age (inclusive), have a history of migraine with or without aura for at least 1 year consistent with a diagnosis according to the International Classification of Headache Disorders criteria, 3rd edition, beta version, have experienced 4 to 14 migraine/probable migraine headache days and <15 headache days in the 28-day baseline period. Patients who had clinically significant hematologic, endocrine, cardiovascular, cerebrovascular, pulmonary, renal, hepatic, gastrointestinal, or neurologic disease were excluded from the study.
A total of 834 patients were randomized to double-blind treatment (ITT population), and 825 patients took at least 1 dose of double-blind IP (safety population). […] The primary efficacy variable was the change from baseline in mean monthly migraine/probable migraine headache days across the 12-week treatment period. The secondary efficacy variables were the change from baseline in mean monthly headache days across the 12-week treatment period, proportion of patients with at least a 50% reduction in mean monthly migraine/probable migraine headache days across the 12-week treatment period, and the change from baseline in mean monthly acute medication use days across the 12-week treatment period.

[1] = Weeks 1-4, Atogepant 60 mg BID (N = 87)
[2] = Weeks 1-4, Atogepant 60 mg QD (N = 177)
[3] = Weeks 5-8, Atogepant 10 mg QD (N = 92)
[4] = Weeks 5-8, Atogepant 30 mg BID (N = 79)
[5] = Weeks 5-8, Atogepant 30 mg QD (N = 182)
[6] = Weeks 5-8, Atogepant 60 mg BID (N = 87)
[7] = Weeks 5-8, Atogepant 60 mg QD (N = 177)
[8] = Weeks 9-12, Atogepant 10 mg QD (N = 92)
[9] = Weeks 9-12, Atogepant 30 mg BID (N = 79)
[10] = Weeks 9-12, Atogepant 30 mg QD (N = 182)
[11] = Weeks 9-12, Atogepant 60 mg BID (N = 87)
[12] = Weeks 9-12, Atogepant 60 mg QD (N = 177)

## C[C@@H]1[C@H](c2c(F)ccc(F)c2F)C[C@H](NC(=O)c2cnc3c(c2)C[C@@]2(C3)C(=O)Nc3ncccc32)C(=O)N1CC(F)(F)F [atogepant]
[1]
  Non-responders (at least 100% reduction in mean monthly MPM headache days not met), (%): (79.3) %
  Non-responders (at least 100% reduction in mean monthly MPM headache days not met), n: 69
  Odds ratio vs. Placebo, at least 100% reduction in mean monthly MPM headache days: 7.43
  Responders (at least 100% reduction in mean monthly MPM headache days), (%): (20.7) %
  Responders (at least 100% reduction in mean monthly MPM headache days), n: 18
[2]
  Non-responders (at least 100% reduction in mean monthly MPM headache days not met), (%): (85.2) %
  Non-responders (at least 100% reduction in mean monthly MPM headache days not met), n: 150
  Odds ratio vs. Placebo, at least 100% reduction in mean monthly MPM headache days: 4.94
  Responders (at least 100% reduction in mean monthly MPM headache days), (%): (14.8) %
  Responders (at least 100% reduction in mean monthly MPM headache days), n: 26
[3]
  Non-responders (at least 100% reduction in mean monthly MPM headache days not met), (%): (79.1) %
  Non-responders (at least 100% reduction in mean monthly MPM headache days not met), n: 68
  Odds ratio vs. Placebo, at least 100% reduction in mean monthly MPM headache days: 2.34
  Responders (at least 100% reduction in mean monthly MPM headache days), (%): (20.9) %
  Responders (at least 100% reduction in mean monthly MPM headache days), n: 18
[4]
  Non-responders (at least 100% reduction in mean monthly MPM headache days not met), (%): (80.3) %
  Non-responders (at least 100% reduction in mean monthly MPM headache days not met), n: 57
  Odds ratio vs. Placebo, at least 100% reduction in mean monthly MPM headache days: 2.26
  Responders (at least 100% reduction in mean monthly MPM headache days), (%): (19.7) %
  Responders (at least 100% reduction in mean monthly MPM headache days), n: 14
[5]
  Non-responders (at least 100% reduction in mean monthly MPM headache days not met), (%): (73.3) %
  Non-responders (at least 100% reduction in mean monthly MPM headache days not met), n: 121
  Odds ratio vs. Placebo, at least 100% reduction in mean monthly MPM headache days: 3.26
  Responders (at least 100% reduction in mean monthly MPM headache days), (%): (26.7) %
  Responders (at least 100% reduction in mean monthly MPM headache days), n: 44
[6]
  Non-responders (at least 100% reduction in mean monthly MPM headache days not met), (%): (73.8) %
  Non-responders (at least 100% reduction in mean monthly MPM headache days not met), n: 59
  Odds ratio vs. Placebo, at least 100% reduction in mean monthly MPM headache days: 3.25
  Responders (at least 100% reduction in mean monthly MPM headache days), (%): (26.3) %
  Responders (at least 100% reduction in mean monthly MPM headache days), n: 21
[7]
  Non-responders (at least 100% reduction in mean monthly MPM headache days not met), (%): (79.9) %
  Non-responders (at least 100% reduction in mean monthly MPM headache days not met), n: 135
  Odds ratio vs. Placebo, at least 100% reduction in mean monthly MPM headache days: 2.31
  Responders (at least 100% reduction in mean monthly MPM headache days), (%): (20.1) %
  Responders (at least 100% reduction in mean monthly MPM headache days), n: 34
[8]
  Non-responders (at least 100% reduction in mean monthly MPM headache days not met), (%): (79.8) %
  Non-responders (at least 100% reduction in mean monthly MPM headache days not met), n: 67
  Odds ratio vs. Placebo, at least 100% reduction in mean monthly MPM headache days: 1.43
  Responders (at least 100% reduction in mean monthly MPM headache days), (%): (20.02) %
  Responders (at least 100% reduction in mean monthly MPM headache days), n: 17
[9]
  Non-responders (at least 100% reduction in mean monthly MPM headache days not met), (%): (71.0) %
  Non-responders (at least 100% reduction in mean monthly MPM headache days not met), n: 49
  Odds ratio vs. Placebo, at least 100% reduction in mean monthly MPM headache days: 2.42
  Responders (at least 100% reduction in mean monthly MPM headache days), (%): (29.0) %
  Responders (at least 100% reduction in mean monthly MPM headache days), n: 20
[10]
  Non-responders (at least 100% reduction in mean monthly MPM headache days not met), (%): (77.0) %
  Non-responders (at least 100% reduction in mean monthly MPM headache days not met), n: 117
  Odds ratio vs. Placebo, at least 100% reduction in mean monthly MPM headache days: 1.72
  Responders (at least 100% reduction in mean monthly MPM headache days), (%): (23.0) %
  Responders (at least 100% reduction in mean monthly MPM headache days), n: 35
[11]
  Non-responders (at least 100% reduction in mean monthly MPM headache days not met), (%): (67.6) %
  Non-responders (at least 100% reduction in mean monthly MPM headache days not met), n: 48
  Odds ratio vs. Placebo, at least 100% reduction in mean monthly MPM headache days: 2.59
  Responders (at least 100% reduction in mean monthly MPM headache days), (%): (32.4) %
  Responders (at least 100% reduction in mean monthly MPM headache days), n: 23
[12]
  Non-responders (at least 100% reduction in mean monthly MPM headache days not met), (%): (73.2) %
  Non-responders (at least 100% reduction in mean monthly MPM headache days not met), n: 120
  Odds ratio vs. Placebo, at least 100% reduction in mean monthly MPM headache days: 2.07
  Responders (at least 100% reduction in mean monthly MPM headache days), (%): (26.8) %
  Responders (at least 100% reduction in mean monthly MPM headache days), n: 44
